Results published in patent publication US8192962B2, “Processes for detecting toxic substances” (Daikin Industries, Ltd., priority 2001, dated 2012).

Test system: Genes belonging to other category
Test: DNA chip mRNA expression in yeast, genes belonging to other category (Table 9)
Format: cell-based, Saccharomyces cerevisiae S288C
Method in brief: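 S. cerevisiae S288C grown at 25° C in YPD were exposed in log phase for two hours to one toxic chemical at a growth-inhibiting, non-lethal concentration; untreated cells served as control. Poly(A) mRNA was reverse-transcribed with Cy3/Cy5-dUTP and hybridized to a whole-genome yeast DNA chip at 65° C for over 12 hours; values are fluorescence ratios versus untreated.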

In the case of `COc1cc(CNC(=O)CCCCC=CC(C)C)ccc1O` [(12), 8-methyl-N-vanillyl-6-nonenamide], the “The level of expressed mRNA in the presence of chemical substance/The level of expressed mRNA in the absence of chemical substance” value (yeast gene YAR010C) is reported as 1.0, the “The level of expressed mRNA in the presence of chemical substance/The level of expressed mRNA in the absence of chemical substance” value (yeast gene YBL005W-A) is reported as 1.6 and the “The level of expressed mRNA in the presence of chemical substance/The level of expressed mRNA in the absence of chemical substance” value (yeast gene YBL041W) is reported as 1.6. The “The level of expressed mRNA in the presence of chemical substance/The level of expressed mRNA in the absence of chemical substance” value (yeast gene YBL043W) was 0.9, the “The level of expressed mRNA in the presence of chemical substance/The level of expressed mRNA in the absence of chemical substance” value (yeast gene YBL078C) was 3.1 and the “The level of expressed mRNA in the presence of chemical substance/The level of expressed mRNA in the absence of chemical substance” value (yeast gene YBL102W) was 0.9. The “The level of expressed mRNA in the presence of chemical substance/The level of expressed mRNA in the absence of chemical substance” value (yeast gene YBR212W) was 0.9, the “The level of expressed mRNA in the presence of chemical substance/The level of expressed mRNA in the absence of chemical substance” value (yeast gene YBR214W) was 1.2 and the “The level of expressed mRNA in the presence of chemical substance/The level of expressed mRNA in the absence of chemical substance” value (yeast gene YCL020W) was 1.5. The “The level of expressed mRNA in the presence of chemical substance/The level of expressed mRNA in the absence of chemical substance” value (yeast gene YCL027W) was 0.8, the “The level of expressed mRNA in the presence of chemical substance/The level of expressed mRNA in the absence of chemical substance” value (yeast gene YCL067C) was 1.0 and the “The level of expressed mRNA in the presence of chemical substance/The level of expressed mRNA in the absence of chemical substance” value (yeast gene YCR004C) was 0.8. The “The level of expressed mRNA in the presence of chemical substance/The level of expressed mRNA in the absence of chemical substance” value (yeast gene YCR067C) was 0.9, the “The level of expressed mRNA in the presence of chemical substance/The level of expressed mRNA in the absence of chemical substance” value (yeast gene YCR071C) was 1.1 and the “The level of expressed mRNA in the presence of chemical substance/The level of expressed mRNA in the absence of chemical substance” value (yeast gene YCR088W) was 1.3. The “The level of expressed mRNA in the presence of chemical substance/The level of expressed mRNA in the absence of chemical substance” value (yeast gene YCR096C) was 1.0, the “The level of expressed mRNA in the presence of chemical substance/The level of expressed mRNA in the absence of chemical substance” value (yeast gene YDL008W) was 1.2 and the “The level of expressed mRNA in the presence of chemical substance/The level of expressed mRNA in the absence of chemical substance” value (yeast gene YDL119C) was 0.9. The “The level of expressed mRNA in the presence of chemical substance/The level of expressed mRNA in the absence of chemical substance” value (yeast gene YDL197C) was 0.8, the “The level of expressed mRNA in the presence of chemical substance/The level of expressed mRNA in the absence of chemical substance” value (yeast gene YDL238C) was 0.9 and the “The level of expressed mRNA in the presence of chemical substance/The level of expressed mRNA in the absence of chemical substance” value (yeast gene YDR055W) was 1.4. The “The level of expressed mRNA in the presence of chemical substance/The level of expressed mRNA in the absence of chemical substance” value (yeast gene YDR084C) was 0.7, the “The level of expressed mRNA in the presence of chemical substance/The level of expressed mRNA in the absence of chemical substance” value (yeast gene YDR085C) was 1.6 and the “The level of expressed mRNA in the presence of chemical substance/The level of expressed mRNA in the absence of chemical substance” value (yeast gene YDR104C) was 1.1. For the same compound, the “The level of expressed mRNA in the presence of chemical substance/The level of expressed mRNA in the absence of chemical substance” value (yeast gene YDR115W) was 0.9, the “The level of expressed mRNA in the presence of chemical substance/The level of expressed mRNA in the absence of chemical substance” value (yeast gene YDR169C) was 0.9 and the “The level of expressed mRNA in the presence of chemical substance/The level of expressed mRNA in the absence of chemical substance” value (yeast gene YDR188W) was 0.9. For the same compound, the “The level of expressed mRNA in the presence of chemical substance/The level of expressed mRNA in the absence of chemical substance” value (yeast gene YDR212W) was 0.8, the “The level of expressed mRNA in the presence of chemical substance/The level of expressed mRNA in the absence of chemical substance” value (yeast gene YDR259C) was 1.0 and the “The level of expressed mRNA in the presence of chemical substance/The level of expressed mRNA in the absence of chemical substance” value (yeast gene YDR315C) was 0.6. For the same compound, the “The level of expressed mRNA in the presence of chemical substance/The level of expressed mRNA in the absence of chemical substance” value (yeast gene YDR329C) was 0.8, the “The level of expressed mRNA in the presence of chemical substance/The level of expressed mRNA in the absence of chemical substance” value (yeast gene YDR358W) was 1.1 and the “The level of expressed mRNA in the presence of chemical substance/The level of expressed mRNA in the absence of chemical substance” value (yeast gene YDR378C) was 0.9. The “The level of expressed mRNA in the presence of chemical substance/The level of expressed mRNA in the absence of chemical substance” value (yeast gene YDR388W) was 0.8, the “The level of expressed mRNA in the presence of chemical substance/The level of expressed mRNA in the absence of chemical substance” value (yeast gene YDR403W) was 1.0 and the “The level of expressed mRNA in the presence of chemical substance/The level of expressed mRNA in the absence of chemical substance” value (yeast gene YDR432W) was 0.7. For the same compound, the “The level of expressed mRNA in the presence of chemical substance/The level of expressed mRNA in the absence of chemical substance” value (yeast gene YDR481C) was 0.9, the “The level of expressed mRNA in the presence of chemical substance/The level of expressed mRNA in the absence of chemical substance” value (yeast gene YDR510W) was 1.4 and the “The level of expressed mRNA in the presence of chemical substance/The level of expressed mRNA in the absence of chemical substance” value (yeast gene YDR515W) was 0.8. For the same compound, the “The level of expressed mRNA in the presence of chemical substance/The level of expressed mRNA in the absence of chemical substance” value (yeast gene YEL005C) was 0.8, the “The level of expressed mRNA in the presence of chemical substance/The level of expressed mRNA in the absence of chemical substance” value (yeast gene YEL042W) was 1.0 and the “The level of expressed mRNA in the presence of chemical substance/The level of expressed mRNA in the absence of chemical substance” value (yeast gene YEL066W) was 0.8. The “The level of expressed mRNA in the presence of chemical substance/The level of expressed mRNA in the absence of chemical substance” value (yeast gene YER021W) was 1.0, the “The level of expressed mRNA in the presence of chemical substance/The level of expressed mRNA in the absence of chemical substance” value (yeast gene YER039C) was 0.9 and the “The level of expressed mRNA in the presence of chemical substance/The level of expressed mRNA in the absence of chemical substance” value (yeast gene YER048C) was 0.8. The “The level of expressed mRNA in the presence of chemical substance/The level of expressed mRNA in the absence of chemical substance” value (yeast gene YER100W) was 0.8, the “The level of expressed mRNA in the presence of chemical substance/The level of expressed mRNA in the absence of chemical substance” value (yeast gene YER107C) was 0.7 and the “The level of expressed mRNA in the presence of chemical substance/The level of expressed mRNA in the absence of chemical substance” value (yeast gene YER130C) was 1.0. For the same compound, the “The level of expressed mRNA in the presence of chemical substance/The level of expressed mRNA in the absence of chemical substance” value (yeast gene YFL022C) was 0.6, the “The level of expressed mRNA in the presence of chemical substance/The level of expressed mRNA in the absence of chemical substance” value (yeast gene YFL028C) was 1.1 and the “The level of expressed mRNA in the presence of chemical substance/The level of expressed mRNA in the absence of chemical substance” value (yeast gene YFL043C) was 0.9. For the same compound, the “The level of expressed mRNA in the presence of chemical substance/The level of expressed mRNA in the absence of chemical substance” value (yeast gene YGL011C) was 1.0, the “The level of expressed mRNA in the presence of chemical substance/The level of expressed mRNA in the absence of chemical substance” value (yeast gene YGL094C) was 0.8 and the “The level of expressed mRNA in the presence of chemical substance/The level of expressed mRNA in the absence of chemical substance” value (yeast gene YGL150C) was 0.8. The “The level of expressed mRNA in the presence of chemical substance/The level of expressed mRNA in the absence of chemical substance” value (yeast gene YGL158W) was 1.3, the “The level of expressed mRNA in the presence of chemical substance/The level of expressed mRNA in the absence of chemical substance” value (yeast gene YGL207W) was 0.7 and the “The level of expressed mRNA in the presence of chemical substance/The level of expressed mRNA in the absence of chemical substance” value (yeast gene YGL229C) was 1.1. The “The level of expressed mRNA in the presence of chemical substance/The level of expressed mRNA in the absence of chemical substance” value (yeast gene YGR023W) was 0.9, the “The level of expressed mRNA in the presence of chemical substance/The level of expressed mRNA in the absence of chemical substance” value (yeast gene YGR036C) was 1.0 and the “The level of expressed mRNA in the presence of chemical substance/The level of expressed mRNA in the absence of chemical substance” value (yeast gene YGR136W) was 1.2. The “The level of expressed mRNA in the presence of chemical substance/The level of expressed mRNA in the absence of chemical substance” value (yeast gene YGR189C) was 1.3, the “The level of expressed mRNA in the presence of chemical substance/The level of expressed mRNA in the absence of chemical substance” value (yeast gene YGR201C) was 1.9 and the “The level of expressed mRNA in the presence of chemical substance/The level of expressed mRNA in the absence of chemical substance” value (yeast gene YGR213C) was 10.6. The “The level of expressed mRNA in the presence of chemical substance/The level of expressed mRNA in the absence of chemical substance” value (yeast gene YGR257C) was 0.9, the “The level of expressed mRNA in the presence of chemical substance/The level of expressed mRNA in the absence of chemical substance” value (yeast gene YGR270W) was 0.8 and the “The level of expressed mRNA in the presence of chemical substance/The level of expressed mRNA in the absence of chemical substance” value (yeast gene YGR279C) was 0.7. The “The level of expressed mRNA in the presence of chemical substance/The level of expressed mRNA in the absence of chemical substance” value (yeast gene YHR004C) was 0.9, the “The level of expressed mRNA in the presence of chemical substance/The level of expressed mRNA in the absence of chemical substance” value (yeast gene YHR027C) was 1.0 and the “The level of expressed mRNA in the presence of chemical substance/The level of expressed mRNA in the absence of chemical substance” value (yeast gene YHR071W) was 0.8. For the same compound, the “The level of expressed mRNA in the presence of chemical substance/The level of expressed mRNA in the absence of chemical substance” value (yeast gene YHR139C) was 1.6, the “The level of expressed mRNA in the presence of chemical substance/The level of expressed mRNA in the absence of chemical substance” value (yeast gene YHR142W) was 1.3 and the “The level of expressed mRNA in the presence of chemical substance/The level of expressed mRNA in the absence of chemical substance” value (yeast gene YHR160C) was 0.8. For the same compound, the “The level of expressed mRNA in the presence of chemical substance/The level of expressed mRNA in the absence of chemical substance” value (yeast gene YHR161C) was 1.0, the “The level of expressed mRNA in the presence of chemical substance/The level of expressed mRNA in the absence of chemical substance” value (yeast gene YHR171W) was 0.8 and the “The level of expressed mRNA in the presence of chemical substance/The level of expressed mRNA in the absence of chemical substance” value (yeast gene YHR195W) was 0.9. For the same compound, the “The level of expressed mRNA in the presence of chemical substance/The level of expressed mRNA in the absence of chemical substance” value (yeast gene YIL034C) was 1.0, the “The level of expressed mRNA in the presence of chemical substance/The level of expressed mRNA in the absence of chemical substance” value (yeast gene YIL062C) was 0.8 and the “The level of expressed mRNA in the presence of chemical substance/The level of expressed mRNA in the absence of chemical substance” value (yeast gene YIL075C) was 0.8. The “The level of expressed mRNA in the presence of chemical substance/The level of expressed mRNA in the absence of chemical substance” value (yeast gene YIL123W) was 0.8, the “The level of expressed mRNA in the presence of chemical substance/The level of expressed mRNA in the absence of chemical substance” value (yeast gene YIL140W) was 1.0 and the “The level of expressed mRNA in the presence of chemical substance/The level of expressed mRNA in the absence of chemical substance” value (yeast gene YJL073W) was 1.0. The “The level of expressed mRNA in the presence of chemical substance/The level of expressed mRNA in the absence of chemical substance” value (yeast gene YJL089W) was 1.2 and the “The level of expressed mRNA in the presence of chemical substance/The level of expressed mRNA in the absence of chemical substance” value (yeast gene YJL113W) was 0.7.
